Read-outs that look alike come from different tables or passages of the source. Marks after values point to notes of the source that are not given here. Ends that are not written are not given here. Peptide text beside a SMILES is read from it.
What was measured:
HIV-1 [1] = conditions: summary of Experiments 1-6
Procedure: (§1) Next, the ability of peptide agents to inhibit viral infection was evaluated. Accordingly, the peptide agents listed in Table 1 were used in several viral (e.g., HIV-1, HIV-2, and SIV) infection assays. […] Once inhibitory tripeptides were identified, more specific assays were conducted to determine the effect of varying concentrations of the selected tripeptides and combination treatments (e.g., the use of more than one modified tripeptide in combination).

SIV = assay: viral infection assay in H9 cells, reverse transcriptase (RT) activity in supernatant; format: cell-based; conditions: for effect on SIV infection, in words: summary of the experiments in H9 cells; for Day 7 RT SIV / Day 10 RT SIV: H9 cells, 100 μM
Procedure: as §1
(§2) To monitor the replication of virus, reverse transcriptase (RT) activity in the supernatants was assayed using a commercially available Lenti-RT activity kit. (Cavidi Tech, Uppsala, Sweden). The amount of RT was determined with the aid of a regression line of standards. […] Syncytium formation was also monitored by microscopic examination.
(§3) (Cavidi Tech). The amount of RT was determined with the aid of a regression line of standards.

HIV-2 = assay: as above; format: cell-based; conditions: for effect on HIV-2 infection, in words: summary of the experiments in H9 cells; for Day 7 RT HIV-2 / Day 10 RT HIV-2: H9 cells, 100 μM
Procedure: as §1, §2, §3

[2] = molecular target: viral capsid protein (p24) of HIV-2 (HIV-2)
[3] = molecular target: viral capsid protein (p24) of SIV (SIV)
HIV-1 [4] = conditions: H9 cells, 100 μM, pos/neg
Procedure: as §1, §2

HIV-1 [5] = conditions: H9 cells, 100 μM
Procedure: Next, the ability of peptide agents to inhibit viral infection was evaluated. Accordingly, the peptide agents listed in Table 1 were used in several viral (e.g., HIV-1, HIV-2, and SIV) infection assays. The efficiency of HIV-1, HIV-2, and SIV infection was monitored by reverse transcriptase activity, the concentration of p24 protein in the cell supernatent, and by microscopic evaluation of HIV-1 syncytia formation. In initial experiments, several modified tripeptides were screened for the ability to inhibit HIV-1, HIV-2, and SIV infection in H9 cells.
In Experiments 1 and 2, approximately 200,000H9 cells were infected with HIV-1, HIV-2 or SIV at 25 TCID50 to test the inhibitory effect of the following synthesized tripeptides LKA-NH2, ILK-NH2, GPQ-NH2, GHK-NH2, GKG-NH2, ACQ-NH2, CQG-NH2, ARV-NH2, KAR-NH2, HKA-NH2, GAT-NH2, KAL-NH2, and GPG-NH2. Accordingly, the H9 cells were resuspended with or without the different peptides (approximately 100 μM) in 1 ml of RPMI 1640 medium supplemented with 10% (v/v) heat-inactivated fetal bovine serum (FBS), penicillin (100 u/ml), and streptomycin (100 u/ml), all available through GIBCO, and Polybrene (2 μg/ml), available through Sigma. Thereafter, viruses were added at 25 TCID50 in a volume of 20-30%1. Cells were incubated with virus at 37° C. for 1 hr then pelleted at 170× g for 7 minutes. The cells were then washed three times in RPMI medium without peptides at room temperature and pelleted at 170× g for 7 minutes, as above. After the final wash, the cells were resuspended in RPMI culture medium in a 24-well plate (Costar corporation) and kept at 37° C. in 5% CO2 with humidity.
Culture supernatants were collected and analyzed when the medium was changed at 4, 7, 10, and 14 days post infection. To monitor the replication of virus, reverse transcriptase (RT) activity in the supernatants was assayed using a commercially available Lenti-RT activity kit. […] The amount of RT was determined with the aid of a regression line of standards. The results are presented as absorbance values (OD) and higher absorbance indicates a higher protein concentration and greater viral infection. Syncytium formation was also monitored by microscopic examination.
In Experiment 3, (Table 5), approximately 200,000H9 cells were infected with HIV-1, HIV-2 or SIV at 25 TCID50 to test the inhibitory effect of different concentrations of peptides GPG-NH2, GKG-NH2 and CQG-NH2 and combinations of these peptides (the indicated concentration corresponds to the concentration of each tripeptide). As above, H9 cells were resuspended with or without the different peptides at varying concentrations in 1 ml of RPMI 1640 medium supplemented with 10% (v/v) heat-inactivated fetal bovine serum (FBS), penicillin (100 u/ml), and streptomycin (lOOu/ml), and Polybrene (2 μg/ml). Thereafter, viruses were added at 25 TCID50 in a volume of 20-30 μ. Cells were incubated with the indicated virus at 37° C. for 1 hr then pelleted at 170× g for 7 minutes. The cells were then washed three times in RPMI medium without peptides at room temperature and pelleted at 170× g for 7 minutes, as above. After the final wash, the cells were resuspended in RPMI culture medium in a 24-well plate (Costar corporation) and kept at 37° C. in 5% CO2 with humidity.
Culture supernatants were collected when the medium was changed at 4, 7, and 11 days post infection. As above, the replication of each virus was monitored by detecting reverse transcriptase (RT) activity in the supernatants using the Lenti-RT activity kit.

[6] = molecular target: major capsid protein (p24) of HIV-1 (HIV-1, UniProt P04591); assay: cell-based or functional assay
[7] = Experiment 1, higher OD = greater infection

Row | Molecule | effect on HIV-1 infection, in words (HIV-1 [1]) | reverse transcriptase (RT) activity in the supernatants, Day 10 RT (OD) [2] | reverse transcriptase (RT) activity in the supernatants, Day 10 RT (OD) [3] | HIV-1 Syncytia (HIV-1 [4]; Experiment 1) | HIV-1 Syncytia (HIV-1 [4]; Experiment 2) | Day 7 RT SIV (SIV; Experiment 1) | Day 10 RT SIV (SIV; Experiment 1) | Day 7 RT SIV (SIV; Experiment 2) | Day 10 RT SIV (SIV; Experiment 2) | Day 7 RT HIV-2 (HIV-2; Experiment 1) | Day 10 RT HIV-2 (HIV-2; Experiment 1) | Day 7 RT HIV-2 (HIV-2; Experiment 2) | Day 10 RT HIV-2 (HIV-2; Experiment 2) | Day 10 RT HIV-1 (HIV-1 [5]; Experiment 1) | Day 7 RT HIV-1 (HIV-1 [5]; [7]) | Day 7 RT HIV-1 (HIV-1 [5]; Experiment 2) | Day 10 RT HIV-1 (HIV-1 [5]; Experiment 2) | also measured
1 | cystyl-glutaminyl-glycine amide [CQG-NH2] | inhibited and/or prevented HIV-1 infection | – | – | – | – | – | – | – | – | – | – | – | – | – | – | – | – | effect on SIV infection, in words (SIV): inhibit or prevent HIV-2 and SIV infection; effect on HIV-2 infection, in words (HIV-2): inhibit or prevent HIV-2 and SIV infection
2 | KAL-NH2 (peptide) | – | 2.75 OD | 2.52 OD | – | – | – | – | – | – | – | – | – | – | – | – | – | – | –
3 | ARV-NH2 (peptide) | – | 3 OD | 1.17 OD | – | – | – | – | – | – | – | – | – | – | – | – | – | – | –
4 | GHK-NH2 (peptide) | – | 2.93 OD | 2.38 OD | – | – | – | – | – | – | – | – | – | – | – | – | – | – | –
5 | Cys-Gln-Gly-NH2 (peptide) | – | 0.296 OD | 0.11 OD | – | – | – | – | – | – | – | – | – | – | – | – | – | – | –
6 | ACQ-NH2 (peptide) | – | 2.75 OD | 2.75 OD | – | – | – | – | – | – | – | – | – | – | – | – | – | – | –
7 | GPQ-NH2 (peptide) | – | 2.73 OD | 2.18 OD | – | – | – | – | – | – | – | – | – | – | – | – | – | – | –
8 | NCCCC[C@H](NC(=O)CN)C(=O)NCC(N)=O [GKG-NH2, glycyl-lysyl-glycine amide] (H-Gly-Lys-Gly-NH2) | inhibited and/or prevented HIV-1 infection | – | – | – | – | – | – | – | – | – | – | – | – | – | – | – | – | effect on SIV infection, in words (SIV): inhibit or prevent HIV-2 and SIV infection; effect on HIV-2 infection, in words (HIV-2): inhibit or prevent HIV-2 and SIV infection
9 | Gly-His-Lys (Gly-His-Lys-NH2) [GHK-NH2] | failed to prevent infection and syncytia formation | – | – | pos | pos | 0.097 OD | 2.384 OD | 0.396 OD | 2.394 OD | 3.522 OD | 2.931 OD | 1.936 OD | 2.418 OD | 2.151 OD | 0.289 OD | 0.829 OD | 3.013 OD | –
10 | LKA-NH2 (peptide) | – | 2.77 OD | 2.45 OD | – | – | – | – | – | – | – | – | – | – | – | – | – | – | –
11 | Lys-Ala-Arg (Lys-Ala-Arg-NH2) [KAR-NH2] | – | – | – | pos | pos | 0.266 OD | 1.722 OD | 1.034 OD | 2.672 OD | 3.419 OD | 2.640 OD | 1.904 OD | 2.742 OD | 2.779 OD | 0.380 OD | 0.753 OD | 2.928 OD | –
12 | Lys-Ala-Leu (Lys-Ala-Leu-NH2) [KAL-NH2] | failed to prevent infection | – | – | pos | pos | 1.091 OD | 2.524 OD | 0.511 OD | 2.663 OD | 3.372 OD | 2.749 OD | 1.757 OD | 2.383 OD | 1.995 OD | 0.246 OD | 0.999 OD | 2.791 OD | –
13 | KAR-NH2 (peptide) | – | 2.64 OD | 1.72 OD | – | – | – | – | – | – | – | – | – | – | – | – | – | – | –
14 | HKA-NH2 (peptide) | – | 2.67 OD | 2.52 OD | – | – | – | – | – | – | – | – | – | – | – | – | – | – | –
15 | GAT-NH2 (peptide) | – | 2.83 OD | 2.34 OD | – | – | – | – | – | – | – | – | – | – | – | – | – | – | –
16 | Gly-Pro-Gln (Gly-Pro-Gln-NH2) [GPQ-NH2] | did not prevent HIV infection | – | – | pos | pos | 1.542 OD | 2.176 OD | 0.574 OD | 2.319 OD | 3.692 OD | 2.734 OD | 1.511 OD | 2.382 OD | 1.965 OD | 0.204 OD | 0.884 OD | 2.848 OD | –
17 | Gly-Lys-Gly-NH2 (peptide) | – | 0.147 OD | 0.099 OD | – | – | – | – | – | – | – | – | – | – | – | – | – | – | –
18 | His-Lys-Ala (His-Lys-Ala-NH2) [HKA-NH2] | did not prevent HIV infection | – | – | pos | pos | 0.416 OD | 2.520 OD | 0.455 OD | 2.623 OD | 3.408 OD | 2.669 OD | 1.678 OD | 2.560 OD | 2.546 OD | 0.312 OD | 1.081 OD | 2.794 OD | –
19 | Leu-Lys-Ala (Leu-Lys-Ala-NH2) [LKA-NH2] | did not prevent HIV infection | – | – | pos | pos | 3.577 OD | 2.452 OD | 0.724 OD | 2.797 OD | 3.649 OD | 2.769 OD | 1.689 OD | 2.637 OD | 2.429 OD | 0.568* OD | 0.894* OD | 2.989 OD | –
20 | Ala-Arg-Val (Ala-Arg-Val-NH2) [ARV-NH2] | failed to prevent infection | – | – | pos | pos | 0.210 OD | 1.172 OD | 0.212 OD | 3.004 OD | 3.380 OD | 3.003 OD | 2.237 OD | 2.628 OD | 1.528 OD | 0.156 OD | 0.618 OD | 2.829 OD | –
21 | ILK-NH2 (peptide) | – | 2.79 OD | 2.25 OD | – | – | – | – | – | – | – | – | – | – | – | – | – | – | –
22 | Iso-Leu-Lys (Ile-Leu-Lys-NH2) [ILK-NH2] | – | – | – | pos | pos | 3.180 OD | 2.255 OD | 0.515 OD | 2.632 OD | 3.467 OD | 2.791 OD | 1.692 OD | 2.557 OD | 2.033 OD | 0.365 OD | 0.581 OD | 2.950 OD | –
23 | Gly-Ala-Thr (Gly-Ala-Thr-NH2) [GAT-NH2] | failed to prevent infection and syncytia formation | – | – | pos | pos | 0.892 OD | 2.343 OD | 0.572 OD | 2.776 OD | 3.461 OD | 2.835 OD | 1.707 OD | 2.565 OD | 1.565 OD | 0.116 OD | 0.776 OD | 2.800 OD | –
24 | Ala-Cys-Gln (Ala-Cys-Gln-NH2) [ACQ-NH2] | did not prevent HIV infection | – | – | pos | pos | 1.241 OD | 2.746 OD | 0.612 OD | 2.606 OD | 3.418 OD | 2.753 OD | 1.661 OD | 2.505 OD | 0.904 OD | 0.117 OD | 0.606 OD | 2.831 OD | –
25 | Leu-Lys-Ala-NH2 [LKA-NH2] | – | – | – | – | – | – | – | – | – | – | – | – | – | – | – | – | – | reverse transcriptase (RT) activity in the supernatants, Day 10 RT (OD) [6]: 2.43 OD
26 | Ile-Leu-Lys-NH2 [ILK-NH2] | – | – | – | – | – | – | – | – | – | – | – | – | – | – | – | – | – | reverse transcriptase (RT) activity in the supernatants, Day 10 RT (OD) [6]: 2.03 OD
27 | Gly-Lys-Gly-NH2 [Gly-Lys-Gly-NH2] | – | – | – | – | – | – | – | – | – | – | – | – | – | – | – | – | – | reverse transcriptase (RT) activity in the supernatants, Day 10 RT (OD) [6]: 0.074 OD
28 | Gly-Pro-Gln-NH2 [GPQ-NH2] | – | – | – | – | – | – | – | – | – | – | – | – | – | – | – | – | – | reverse transcriptase (RT) activity in the supernatants, Day 10 RT (OD) [6]: 1.97 OD
29 | Gly-His-Lys-NH2 [GHK-NH2] | – | – | – | – | – | – | – | – | – | – | – | – | – | – | – | – | – | reverse transcriptase (RT) activity in the supernatants, Day 10 RT (OD) [6]: 2.15 OD

— US20030050242A1, “Protein polymerization inhibitors and methods of use” (priority 1999, published 2003)
